Experimental data as given in PubChem BioAssay AID248 (DTP/NCI, 2004).
Where “and” joins values, the source holds several entries; their conditions need not be identical. Identical values can stand only once. Toxic doses and inconclusive results are not listed. Cut-off read from the data, not from the text of the source: active = T/C of 150% or more; inactive = T/C below 125%.

Test system: L1210 leukemia ip in BDF1 mice, survival T/C
Experiment: NCI In Vivo Anticancer Drug Screen. Data for tumor model L1210 Leukemia (intraperitoneal) in B6D2F1 (BDF1) mice
Details: endpoint: mean survival time, higher = longer survival
In short: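 Antitumor effect is assessed in tumor-bearing animals. Survival in the compound arm is compared with a vehicle-dosed control arm and expressed as their quotient.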

[1] = dose: 400.0 mg/kg/injection, schedule: Q04DX002 (ip), vehicle: saline with Tween-80
[2] = dose: 100.0 mg/kg/injection, schedule: Q04DX002 (ip), vehicle: other
[3] = dose: 100.0 mg/kg/injection, schedule: Q04DX003 (ip), vehicle: saline with Tween-80
[4] = dose: 100.0 mg/kg/injection, schedule: Q01DX009 (ip), vehicle: saline with Tween-80
[5] = dose: 200.0 mg/kg/injection, schedule: Q01DX009 (ip), vehicle: saline with Tween-80
[6] = dose: 400.0 mg/kg/injection, schedule: Q01DX009 (ip), vehicle: saline with Tween-80
[7] = dose: 100.0 mg/kg/injection, schedule: Q04DX003 (ip), vehicle: alcohol
[8] = dose: 200.0 mg/kg/injection, schedule: Q04DX003 (ip), vehicle: alcohol
[9] = dose: 400.0 mg/kg/injection, schedule: Q04DX003 (ip), vehicle: alcohol
[10] = dose: 100.0 mg/kg/injection, schedule: Q04DX002 (ip), vehicle: saline
[11] = dose: 200.0 mg/kg/injection, schedule: Q04DX002 (ip), vehicle: saline
[12] = dose: 400.0 mg/kg/injection, schedule: Q04DX002 (ip), vehicle: saline
[13] = dose: 100.0 mg/kg/injection, schedule: Q01DX009 (ip), vehicle: Klucel (hydroxypropylcellulose) (HPC)
[14] = dose: 200.0 mg/kg/injection, schedule: Q01DX009 (ip), vehicle: Klucel (hydroxypropylcellulose) (HPC)
[15] = dose: 400.0 mg/kg/injection, schedule: Q01DX009 (ip), vehicle: Klucel (hydroxypropylcellulose) (HPC)
[16] = dose: 100.0 mg/kg/injection, schedule: Q04DX003 (ip), vehicle: Klucel (hydroxypropylcellulose) (HPC)
[17] = dose: 200.0 mg/kg/injection, schedule: Q04DX003 (ip), vehicle: Klucel (hydroxypropylcellulose) (HPC)
[18] = dose: 400.0 mg/kg/injection, schedule: Q04DX003 (ip), vehicle: Klucel (hydroxypropylcellulose) (HPC)
[19] = dose: 100.0 mg/kg/injection, schedule: Q01DX001 (ip), vehicle: Klucel (hydroxypropylcellulose) (HPC)
[20] = dose: 200.0 mg/kg/injection, schedule: Q01DX001 (ip), vehicle: Klucel (hydroxypropylcellulose) (HPC)
[21] = dose: 400.0 mg/kg/injection, schedule: Q01DX001 (ip), vehicle: Klucel (hydroxypropylcellulose) (HPC)
[22] = dose: 200.0 mg/kg/injection, schedule: Q04DX003 (ip), vehicle: saline with Tween-80
[23] = dose: 400.0 mg/kg/injection, schedule: Q04DX003 (ip), vehicle: saline with Tween-80

Measured: T/C

O=C(CNNc1ccc([N+](=O)[O-])cn1)Nc1ccc(S(=O)(=O)c2ccc(NC(=O)CNNc3ccc([N+](=O)[O-])cn3)cc2)cc1
inactive: dose: 10.0 mg/kg/injection, schedule: Q01DX Z (ip), vehicle: methylcellulose (MC) 91 % of control | dose: 15.0 mg/kg/injection, schedule: Q01DX Z (ip), vehicle: methylcellulose (MC) 95 % of control | dose: 22.5 mg/kg/injection, schedule: Q01DX Z (ip), vehicle: methylcellulose (MC) 94 % of control

O/N=C(/C(=N/O)c1ccccc1)c1ccccc1.O/N=C(/C(=N/O)c1ccccc1)c1ccccc1.[Ni]
inactive: dose: 100.0 mg/kg/injection, schedule: Q04DX002 (ip), vehicle: saline with Tween-80 97 % of control | dose: 200.0 mg/kg/injection, schedule: Q04DX002 (ip), vehicle: saline with Tween-80 97 % of control | [1] 93 % of control

O=C(O)C(=O)Cc1cccc(Cl)c1[N+](=O)[O-]
inactive: dose: 75.0 mg/kg/injection, schedule: Q04DX003 (ip), vehicle: saline 96 % of control | dose: 150.0 mg/kg/injection, schedule: Q04DX003 (ip), vehicle: saline 102 % of control | dose: 300.0 mg/kg/injection, schedule: Q04DX003 (ip), vehicle: saline 98 % of control

C/C=C(\Br)C(=O)O
inactive: [2] 104 % of control | [3] 92 % of control | dose: 200.0 mg/kg/injection, schedule: Q04DX002 (ip), vehicle: other 104 % of control

CC(=O)CC(C)=NCCN=C(C)CC(C)=O
inactive: [4] 91 % of control | [5] 94 % of control | [6] 92 % of control

O=C(/C=C/c1ccc2c(c1)OCO2)c1ccc([N+](=O)[O-])cc1
inactive: [7] 93 % of control | [8] 90 % of control | [9] 93 % of control

CC(C(=O)O)C(C)(O)C(C)(C)C (centres undefined)
inactive: [10] 104 % of control | [11] 97 % of control | [12] 108 % of control

CCCC(=O)Nc1cc([N+](=O)[O-])ccc1OC
inactive: [13] 104 % of control | [14] 104 % of control | [15] 98 % of control

COC(=O)C1C2CCc3cc(OC)ccc3C2=CCC1C(OC)OC (centres undefined)
inactive: [16] 89 % of control | [17] 89 % of control | [18] 89 % of control

O/N=C\c1cc[n+](CC[n+]2ccc(/C=N/O)cc2)cc1
inactive: [2] 112 % of control

CN/C=C1\CCOC1=O
inactive: [10] 124 % of control | [11] 101 % of control | [12] 90 % of control

Cc1ccc(S(=O)(=O)OC2CCC(C(C)(C)C)C(Cl)C2)cc1 (centres undefined)
inactive: [19] 103 % of control | [20] 87 % of control | [21] 94 % of control

CCN(C(=O)COc1ccc(Cl)cc1Cl)c1ccccc1C
inactive: [4] 106 % of control | [3] 105 % of control | [5] 107 % of control | [22] 102 % of control | [6] 98 % of control | [23] 93 % of control

COc1ccc(C2=NCCO2)cc1N
inactive: [19] 114 % of control | [16] 96 % of control | [20] 104 % of control | [17] 98 % of control | [21] 104 % of control | [18] 91 % of control

C[Si](C)(C)C(c1ccccc1)(c1ccccc1)c1ccccc1
inactive: dose: 25.6 mg/kg/injection, schedule: Q04DX002 (ip), vehicle: saline with Tween-80 101 % of control | dose: 64.0 mg/kg/injection, schedule: Q04DX002 (ip), vehicle: saline with Tween-80 90 % of control | [22] 87 % of control | [1] 90 % of control | [23] 88 % of control

Nn1cnnc1
inactive: dose: 25.0 mg/kg/injection, schedule: Q01DX009 (ip), vehicle: saline 93 % of control | dose: 50.0 mg/kg/injection, schedule: Q01DX009 (ip), vehicle: saline 103 % of control | dose: 100.0 mg/kg/injection, schedule: Q01DX009 (ip), vehicle: saline 86 % of control and 88 % of control | dose: 100.0 mg/kg/injection, schedule: Q04DX003 (ip), vehicle: saline 104 % of control | dose: 200.0 mg/kg/injection, schedule: Q04DX003 (ip), vehicle: saline 96 % of control | dose: 400.0 mg/kg/injection, schedule: Q04DX003 (ip), vehicle: saline 102 % of control

Cc1c(/C=N/N=c2/[nH][nH]/c(=N/N=C/c3c(C)n(C)n(-c4ccccc4)c3=O)c3ccccc23)c(=O)n(-c2ccccc2)n1C
inactive: dose: 50.0 mg/kg/injection, schedule: Q01DX001 (ip), vehicle: saline 93 % of control | dose: 100.0 mg/kg/injection, schedule: Q01DX001 (ip), vehicle: saline 106 % of control | dose: 200.0 mg/kg/injection, schedule: Q01DX001 (ip), vehicle: saline 114 % of control

COc1cc(C=NC(C)(C)CO)cc(OC)c1
inactive: dose: 100.0 mg/kg/injection, schedule: Q01DX001 (ip), vehicle: alcohol 88 % of control | [7] 95 % of control | dose: 200.0 mg/kg/injection, schedule: Q01DX001 (ip), vehicle: alcohol 96 % of control | [8] 97 % of control | dose: 400.0 mg/kg/injection, schedule: Q01DX001 (ip), vehicle: alcohol 96 % of control | [9] 100 % of control

O=C1C(Cl)=C(Nc2ccccc2)C(=O)C(Cl)=C1Nc1ccccc1
inactive: [4] 87 % of control | [3] 88 % of control | [5] 87 % of control | [22] 92 % of control | [6] 94 % of control | [23] 95 % of control

CCCCCCCCCCC[As](=O)(O)O
inactive: dose: 12.5 mg/kg/injection, schedule: Q01DX001 (ip), vehicle: carboxymethylcellulose (CMC) 108 % of control | dose: 25.0 mg/kg/injection, schedule: Q01DX001 (ip), vehicle: carboxymethylcellulose (CMC) 96 % of control | dose: 50.0 mg/kg/injection, schedule: Q01DX001 (ip), vehicle: carboxymethylcellulose (CMC) 104 % of control

COC1OC2COCOC2C2OCOC12 (centres undefined)
inactive: dose: 50.0 mg/kg/injection, schedule: Q04DX002 (ip), vehicle: Klucel (hydroxypropylcellulose) (HPC) 95 % of control | dose: 100.0 mg/kg/injection, schedule: Q04DX002 (ip), vehicle: Klucel (hydroxypropylcellulose) (HPC) 98 % of control | dose: 200.0 mg/kg/injection, schedule: Q04DX002 (ip), vehicle: Klucel (hydroxypropylcellulose) (HPC) 98 % of control

CCN(CC)S(=O)(=O)c1ccc(OC)c(N)c1
inactive: [13] 98 % of control | dose: 100.0 mg/kg/injection, schedule: Q04DX003 (ip), vehicle: other 96 % of control | [14] 96 % of control | dose: 200.0 mg/kg/injection, schedule: Q04DX003 (ip), vehicle: other 104 % of control | [15] 104 % of control | dose: 400.0 mg/kg/injection, schedule: Q04DX003 (ip), vehicle: other 100 % of control
